Assay results as given in patent publication US8017612B2, “Piperazine compound and use thereof as a HCV polymerase inhibitor” (priority 2006, dated 2011).
Counter-ions that a name gives are not always drawn.

Assays:
[1] = biological target: T1, HCV polymerase (NS5B) type 1a (Hepatitis C virus genotype 1a, UniProt P26664); test: Assay of enzyme (HCV polymerase) inhibitory activity, type 1a enzyme; type: biochemical, HCV type 1a (cloned from the blood of patients)
T1 construct: made in house; host or cells: Escherichia coli (by the 'similar method' of the 1b enzyme)
Method in brief: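 NS5B Δ47 C-term His6 (type 1a, 1.5 μg/ml); substrate RNA 5 μg/ml; ATP/GTP/CTP 50 μM, UTP 2 μM + [5,6-3H]UTP; Tris pH 7.5, MgCl2 5 mM; 25° C, 60 min. TCA/pyrophosphate stop, GF/B filter, scintillation. IC50 vs no-compound control.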

[2] = biological target: T2, HCV polymerase (NS5B) type 1b (Hepatitis C virus genotype 1b, UniProt P26663); test: Assay of enzyme (HCV polymerase) inhibitory activity, type 1b enzyme; type: biochemical, HCV BK strain (type 1b)
T2 construct: a region encoding NS5B (J Virol 1991 March, 65(3), 1105-13, 544 amino acids after deletion of 47 amino acids on the C-terminal); 6xHis (C); made in house; host or cells: Escherichia coli
Method in brief: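 Rxn: NS5B 1b (BK, ΔC47, His6) 0.5 μg/ml; substrate RNA 5 μg/ml; ATP/GTP/CTP 50 μM, UTP 2 μM + [5,6-3H]UTP; 20 mM Tris pH 7.5, 5 mM MgCl2, 50 mM NaCl, 1 mM EDTA/DTT. 25 °C, 60 min. Stop with TCA/pyrophosphate, filter, scintillation count; IC50 vs. untreated.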

[3] = HCV polymerase inhibitory activity IC50, 1a, type 1a enzyme
[4] = HCV polymerase inhibitory activity IC50, 1b, type 1b enzyme
[5] = HCV polymerase inhibitory activity (IC50), 1a, type 1a enzyme 1.5 μg/ml, 25° C., 60 min
[6] = HCV polymerase inhibitory activity (IC50), 1b, type 1b enzyme 0.5 μg/ml, 25° C., 60 min

**Q.** What does the source list for O=C(NCc1ccc(OC(F)(F)F)cc1)[C@H]1CN(c2nc3ncncc3s2)CCN1S(=O)(=O)c1ccc(OC(F)F)cc1 [Example 919, (R)-1-(4-difluoromethoxy-benzenesulfonyl)-4-thiazolo[4,5-d]pyrimidin-2-yl-piperazine-2-carboxylic acid 4-trifluoromethoxy-benzylamide]?
**A.** IC50 [1, 3]: < 100 nM; IC50 [2, 4]: < 100 nM

**Q.** Which IC50 [1, 3] does the source give for CCCc1ccc(CNC(=O)[C@H]2CN(c3nc4c(C(=O)OCC)n[nH]c(=O)c4s3)CCN2S(=O)(=O)c2ccc(CC)cc2)cc1 [Example 862, 2-[(R)-4-(4-ethyl-benzenesulfonyl)-3-(4-propyl-benzylcarbamoyl)-piperazin-1-yl]-7-oxo-6,7-dihydro-thiazolo[4,5-d]pyridazine-4-carboxylic acid ethyl ester] here?
**A.** < 100 nM

**Q.** And the IC50 [2, 4]?
**A.** < 100 nM

**Q.** How did the IC50 [1, 5] turn out when CC(C)c1ccc(S(=O)(=O)N2CCN(C(N)=O)CC2C(=O)NCc2ccc(C(F)(F)F)cc2)cc1 (stereo not drawn) [Example 350, 4-(4-isopropyl-benzenesulfonyl)-piperazine-1,3-dicarboxylic acid 1-amide 3-(4-trifluoromethyl-benzylamide)] was run?
**A.** > 1000 nM

**Q.** What about the IC50 [2, 6] of the same molecule?
**A.** > 1000 nM

**Q.** CC(C)c1ccc(CNC(=O)[C@H]2CN(c3cnc(C(=O)O)c(N)n3)CCN2S(=O)(=O)c2ccc(C(F)(F)F)cc2)cc1 [Example 443, (R)-6′-amino-3-(4-isopropyl-benzylcarbamoyl)-4-(4-trifluoromethyl-benzenesulfonyl)-3,4,5,6-tetrahydro-2H-[1,2′]bipyrazinyl-5′-carboxylic acid] was tested. Which IC50 [1, 5] did it give?
**A.** 100 to 1000 nM

**Q.** And the IC50 [2, 6]?
**A.** < 100 nM

**Q.** For CCC(F)(F)c1ccc(CNC(=O)[C@H]2CN(C3=NC(=O)CS3)CCN2S(=O)(=O)c2ccc(OC(F)(F)F)cc2)cc1 [Example 704, (R)-4-(4-oxo-4,5-dihydro-thiazol-2-yl)-1-(4-trifluoromethoxy-benzenesulfonyl)-piperazine-2-carboxylic acid 4-(1,1-difluoro-propyl)-benzylamide], which IC50 [1, 3] is on record?
**A.** < 100 nM

**Q.** What about the IC50 [2, 4] of the same molecule?
**A.** < 100 nM

**Q.** With O=C(O)c1cnc(N2CCN(S(=O)(=O)c3ccc(N4CCCC4)cc3)[C@@H](C(=O)NCc3ccc(OC(F)(F)F)cc3)C2)cn1 [Example 788, (R)-4-(4-pyrrolidin-1-yl-benzenesulfonyl)-3-(4-trifluoromethoxy-benzylcarbamoyl)-3,4,5,6-tetrahydro-2H-[1,2′]bipyrazinyl-5′-carboxylic acid] as the molecule, how does the IC50 [1, 3] read?
**A.** < 100 nM

**Q.** And the IC50 [2, 4]?
**A.** < 100 nM

**Q.** Which IC50 [1, 3] does the source give for COc1nnnc2nc(N3CCN(S(=O)(=O)c4ccc(OC(F)(F)F)cc4)[C@@H](C(=O)NCc4ccc(OC(F)(F)F)cc4)C3)sc12 [Example 1035, (R)-4-(4-methoxy-thiazolo[4,5-d][1,2,3]triazin-6-yl)-1-(4-trifluoromethoxy-benzenesulfonyl)-piperazine-2-carboxylic acid 4-trifluoromethoxy-benzylamide] here?
**A.** < 100 nM

**Q.** And the IC50 [2, 4]?
**A.** < 100 nM

**Q.** What does the source list for O=C(NCc1ccc(OC(F)(F)F)cc1)[C@H]1CN(c2nn3ccc(=O)nc3s2)CCN1S(=O)(=O)c1ccc(OC(F)F)cc1 [Example 1058, (R)-1-(4-difluoromethoxy-benzenesulfonyl)-4-(7-oxo-7H-[1,3,4]thiadiazolo[3,2-a]pyrimidin-2-yl)-piperazine-2-carboxylic acid 4-trifluoromethoxy-benzylamide]?
**A.** IC50 [1, 3]: < 100 nM; IC50 [2, 4]: < 100 nM

**Q.** What does the source list for CN(C)c1ccc(CNC(=O)C2CN(C(=O)OC(C)(C)C)CCN2S(=O)(=O)c2ccc(I)cc2)cc1 (stereo not drawn) [Example 82, 3-(4-dimethylamino-benzylcarbamoyl)-4-(4-iodo-benzenesulfonyl)-piperazine-1-carboxylic acid tert-butyl ester]?
**A.** IC50 [1, 5]: > 1000 nM; IC50 [2, 6]: > 1000 nM

**Q.** How did the IC50 [1, 5] turn out when CC(C)c1ccc(CNC(=O)[C@H]2CN(C(=O)Cn3cncn3)CCN2S(=O)(=O)c2ccc(C(F)(F)F)cc2)cc1 [Example 229, (R)-4-(2-[1,2,4]triazol-1-yl-acetyl)-1-(4-trifluoromethyl-benzenesulfonyl)-piperazine-2-carboxylic acid 4-isopropyl-benzylamide] was run?
**A.** < 100 nM

**Q.** And the IC50 [2, 6]?
**A.** < 100 nM

**Q.** Which results are given for O=C(NCc1ccc(C2CC2)cc1)[C@H]1CN(C(=O)Cc2ccncc2)CCN1S(=O)(=O)c1ccc(OC(F)(F)F)cc1 [Example 412, (R)-4-(2-pyridin-4-yl-acetyl)-1-(4-trifluoromethoxy-benzenesulfonyl)-piperazine-2-carboxylic acid 4-cyclopropyl-benzylamide]?
**A.** IC50 [1, 5]: < 100 nM; IC50 [2, 6]: 100 to 1000 nM

**Q.** Which IC50 [1, 5] does the source give for CCC(F)(F)c1ccc(CNC(=O)[C@H]2CN(C(=O)Nc3nnc(C(F)(F)F)s3)CCN2S(=O)(=O)c2ccc(OC(F)(F)F)cc2)cc1 [Example 489, (R)-4-(4-trifluoromethoxy-benzenesulfonyl)-piperazine-1,3-dicarboxylic acid 3-[4-(1,1-difluoro-propyl)-benzylamide] 1-[(5-trifluoromethyl-[1,3,4]thiadiazol-2-yl)-amide]] here?
**A.** > 1000 nM

**Q.** And the IC50 [2, 6]?
**A.** > 1000 nM

**Q.** With CCC(F)(F)c1ccc(CNC(=O)[C@H]2CN(C(=O)Nc3cscn3)CCN2S(=O)(=O)c2ccc(OC(F)(F)F)cc2)cc1 [Example 525, (R)-4-(4-trifluoromethoxy-benzenesulfonyl)-piperazine-1,3-dicarboxylic acid 3-[4-(1,1-difluoro-propyl)-benzylamide] 1-thiazol-4-ylamide] as the molecule, how does the IC50 [1, 5] read?
**A.** < 100 nM

**Q.** What about the IC50 [2, 6] of the same molecule?
**A.** < 100 nM

**Q.** How did the IC50 [1, 5] turn out when CC(=O)N1CCN(S(=O)(=O)c2ccc(C(C)C)cc2)[C@@H](C(=O)NCc2ccc(C(C)C)cc2Cl)C1 [Example 183, (R)-4-acetyl-1-(4-isopropyl-benzenesulfonyl)-piperazine-2-carboxylic acid 2-chloro-4-isopropyl-benzylamide] was run?
**A.** 100 to 1000 nM

**Q.** And the IC50 [2, 6]?
**A.** 100 to 1000 nM

**Q.** With CC(=O)N1CCN(S(=O)(=O)c2ccc(C#N)cc2)C(C(=O)NCc2ccc(C(F)(F)F)cc2)C1 (stereo not drawn) [Example 46, 4-acetyl-1-(4-cyano-benzenesulfonyl)-piperazine-2-carboxylic acid 4-trifluoromethyl-benzylamide] as the molecule, how does the IC50 [1, 5] read?
**A.** > 1000 nM

**Q.** And the IC50 [2, 6]?
**A.** > 1000 nM

**Q.** What does the source list for CCC(F)(F)c1ccc(CNC(=O)[C@H]2CN(c3cnc4[nH]cnc4n3)CCN2S(=O)(=O)c2ccc(OC(F)(F)F)cc2)cc1 [Example 676, (R)-4-(1H-imidazo[4,5-b]pyrazin-5-yl)-1-(4-trifluoromethoxy-benzenesulfonyl)-piperazine-2-carboxylic acid 4-(1,1-difluoro-propyl)-benzylamide]?
**A.** IC50 [1, 3]: < 100 nM; IC50 [2, 4]: < 100 nM

**Q.** Which IC50 [1, 3] does the source give for CCCc1ccc(CNC(=O)[C@H]2CN(c3nc4c(C(=O)O)nncc4s3)CCN2S(=O)(=O)c2ccc(CC)cc2)cc1 [Example 892, 2-[(R)-4-(4-ethyl-benzenesulfonyl)-3-(4-propyl-benzylcarbamoyl)-piperazin-1-yl]-thiazolo[4,5-d]pyridazine-4-carboxylic acid] here?
**A.** < 100 nM

**Q.** What about the IC50 [2, 4] of the same molecule?
**A.** < 100 nM

**Q.** What does the source list for CC(C)c1ccc(CNC(=O)[C@H]2CN(C(=O)Nc3ccnc(C(=O)O)c3)CCN2S(=O)(=O)c2ccc(C(F)(F)F)cc2)cc1 [Example 314, 4-{[(R)-3-(4-isopropyl-benzylcarbamoyl)-4-(4-trifluoromethyl-benzenesulfonyl)-piperazine-1-carbonyl]-amino}-pyridine-2-carboxylic acid hydrochloride]?
**A.** IC50 [1, 5]: 100 to 1000 nM; IC50 [2, 6]: 100 to 1000 nM
